In PMC8878452, “A Tale of Toxin Promiscuity: The Versatile Pharmacological Effects of Hcr 1b-2 Sea Anemone Peptide on Voltage-Gated Ion Channels” (Marine Drugs, 2022):
Bridges are numbered along the chain shown (N, C = ends). Where no end group is shown, it is not given here.

Columns and labels:
rKv1.3 = test: TEVC, Kv1.3 in Xenopus oocytes; format: cell-based, rat; conditions: 1 µM, ND96 pH 7.4, 18–22 °C, n ≥ 3
Excerpt: (§1) For the expression of Kv channels (rKv1.1, rKv1.2, rKv1.3, rKv1.4, rK1.5, rKv1.6, hKv2.1, hKv3.1, rKv4.2, hKv7.1, hKv7.2/7.3, hKv7.4, KQT1 (from the roundworm Caenorhabditis elegans), hKv10.1 (hEAG1), hKv11.1 (hERG1), and Shaker, from Drosophila melanogaster), Nav channels (rNav1.1, rNav1.2, rNav1.3, rNav1.4, hNav1.5, mNav1.6, hNav1.7, hNav1.8, and BgNav (from the cockroach Blattella germanica), as well as the hβ1 and rβ1 subunits, and Cav channels (rCav3.1, hCav3.2, and rCav3.3) in Xenopus oocytes, the linearized plasmids were transcribed using the T7 or SP6 mMESSAGEmMACHINE transcription kit (Ambion, Austin, TX, USA). Mature female animals were purchased from Nasco (Fort Atkinson, WI, USA) and were housed in the Aquatic Facility (KU Leuven) in compliance with the regulations of the European Union (EU) concerning the welfare of laboratory animals as declared in Directive 2010/63/EU. The use of X. laevis oocytes was approved by the Animal Ethics Committee of the KU Leuven, with the license number P186/2019. […]
(§2) Whole-cell currents of oocytes were recorded 1 to 3 days after RNA injection. […] The current–voltage relationships were determined by 50 ms step depolarizations between −90 and +65 mV using 5 or 10 mV increments. All electrophysiological data were analyzed following the procedures described by Peigneur et al., 2012 [20].
(§3) All values were expressed as means ± SEM. […]

hKv3.1 = test: TEVC, Kv3.1 in Xenopus oocytes; format: cell-based, human; conditions: 1 µM, ND96 pH 7.4, 18–22 °C, n ≥ 3
Excerpt: as §1, §2, §3

rKv4.2 = test: TEVC, Kv4.2 in Xenopus oocytes; format: cell-based, rat; conditions: 1 µM, ND96 pH 7.4, 18–22 °C, n ≥ 3
Excerpt: as §1, §2, §3

KQT1 = test: TEVC, KQT1 in Xenopus oocytes; format: cell-based, Caenorhabditis elegans
Excerpt: (§4) For the expression of Kv channels (rKv1.1, rKv1.2, rKv1.3, rKv1.4, rK1.5, rKv1.6, hKv2.1, hKv3.1, rKv4.2, hKv7.1, hKv7.2/7.3, hKv7.4, KQT1 (from the roundworm Caenorhabditis elegans), hKv10.1 (hEAG1), hKv11.1 (hERG1), and Shaker, from Drosophila melanogaster), Nav channels (rNav1.1, rNav1.2, rNav1.3, rNav1.4, hNav1.5, mNav1.6, hNav1.7, hNav1.8, and BgNav (from the cockroach Blattella germanica), as well as the hβ1 and rβ1 subunits, and Cav channels (rCav3.1, hCav3.2, and rCav3.3) in Xenopus oocytes, the linearized plasmids were transcribed using the T7 or SP6 mMESSAGEmMACHINE transcription kit (Ambion, Austin, TX, USA). Mature female animals were purchased from Nasco (Fort Atkinson, WI, USA) and were housed in the Aquatic Facility (KU Leuven) in compliance with the regulations of the European Union (EU) concerning the welfare of laboratory animals as declared in Directive 2010/63/EU. The use of X. laevis oocytes was approved by the Animal Ethics Committee of the KU Leuven, with the license number P186/2019.
(§5) Stage V–VI oocytes were collected from anesthetized female X. laevis frog as previously described, with the frogs anesthetized by placement in a 0.1% tricaine solution (amino benzoic acid ethyl ester; Merck, Kenilworth, NJ, USA). Oocyte microinjection was performed using a microinjector (Drummond Scientifc®, Broomall, PA, USA), with a programmed cRNA injection volume of 4–50 nL, depending on channel subtype. The oocytes were incubated in ND96 solution (96 mM NaCl; 2 mM KCl; 1.8 mM CaCl2; 2 mM MgCl2, and 5 mM HEPES, pH 7.4), supplemented with 50 mg/L of gentamicin sulfate.
(§6) Electrophysiological measurements were performed at room temperature (18–22 °C) using the two-electrode voltage-clamp (TEVC) technique. Data were obtained using a GeneClamp 500 amplifier (Axon Instruments®, Burlingame, CA, USA) and Clampex9 software (Axon Instruments®, USA) was responsible for data acquisition and storage. Glass micropipettes were produced using glass capillaries (borosilicate WPI 1B120-6) and drawn in a WPI (World Precision Instruments®, Sarasota, FL, USA) manual stretcher. The bath and perfusion solutions were either the previously described ND96 (Nav and Kv channels) or calcium-free ND96 supplemented with 10 mM BaCl2 (Cav channels).
Whole-cell currents of oocytes were recorded 1 to 3 days after RNA injection. The current and voltage electrodes were filled with 3 M KCl, and their resistance was adjusted from 1.0 to 2.5 MΩ. Currents were sampled at 20 kHz (Nav channels) and 10 kHz (Kv and Cav channels) and filtered using a four-pole Bessel low-pass Bessel filter at 1 kHz for sodium and […] for potassium and calcium, except for the hERG ion channel in which the currents were filtered at 1 kHz. Leak subtraction was performed using a P/4 protocol. Kv1.x currents were evoked by 500 ms depolarizations to 0 mV, followed by a 500 ms pulse to −50 mV from a holding potential of −90 mV. Kv2.1, Kv3.1, Kv4.2, Kv7.x, and KQT1 currents were elicited by 700 ms pulses to +20 mV from a holding potential of −90 mV. Current traces of the hERG1 channel were elicited by applying a +40 mV prepulse for 2 s, followed by a step of −120 mV for 2 s. […] The current–voltage relationships were determined by 50 ms step depolarizations between −90 and +65 mV using 5 or 10 mV increments. All electrophysiological data were analyzed following the procedures described by Peigneur et al., 2012 [20].
as §3

Shaker = test: TEVC, Shaker in Xenopus oocytes; format: cell-based, Drosophila melanogaster; conditions: 1 µM, ND96 pH 7.4, 18–22 °C, n ≥ 3
Excerpt: as §1, §2, §3

hNav1.7 = test: TEVC, Nav1.7 in Xenopus oocytes; format: cell-based, human
Excerpt: as §4, §5, §6
(§7) Whole-cell currents of oocytes were recorded 1 to 3 days after RNA injection. The current and voltage electrodes were filled with 3 M KCl, and their resistance was adjusted from 1.0 to 2.5 MΩ. Currents were sampled at 20 kHz (Nav channels) and 10 kHz (Kv and Cav channels) and filtered using a four-pole Bessel low-pass Bessel filter at 1 kHz for sodium and […] for potassium and calcium, except for the hERG ion channel in which the currents were filtered at 1 kHz. Leak subtraction was performed using a P/4 protocol. Kv1.x currents were evoked by 500 ms depolarizations to 0 mV, followed by a 500 ms pulse to −50 mV from a holding potential of −90 mV. Kv2.1, Kv3.1, Kv4.2, Kv7.x, and KQT1 currents were elicited by 700 ms pulses to +20 mV from a holding potential of −90 mV. Current traces of the hERG1 channel were elicited by applying a +40 mV prepulse for 2 s, followed by a step of −120 mV for 2 s. Current traces of hEAG1 were elicited by a 2 s depolarization to 0 mV from a holding potential of −90 mV. Sodium current traces were evoked by a 100 ms depolarization to 0 mV. For Cav channels, current traces were elicited by 700 ms depolarizations to −20 mV from a holding potential of −90 mV. The current–voltage relationships were determined by 50 ms step depolarizations between −90 and +65 mV using 5 or 10 mV increments. All electrophysiological data were analyzed following the procedures described by Peigneur et al., 2012 [20].
(§8) All values were expressed as means ± SEM. Differences in ionic currents between the control and toxin conditions were compared by a one-way ANOVA, followed by Dunnett’s multiple comparisons test. Differences were considered statistically significant when […].

rCav3.3 = test: TEVC, Cav3.3 in Xenopus oocytes; format: cell-based, rat
Excerpt: as §4, §5, §6, §7, §8

ASIC1a = conditions: cited from earlier work
Excerpt: (§9) Hcr 1b-2, the major peptide, presents 41 residues and belongs to the class 1b of sea anemone toxins, with a molecular mass of 4518.9 Da (Uniprot accession number C0HL52).

ASIC3 = conditions: cited from earlier work
Excerpt: as §9

ASIC = system: ASIC; design: method as in 2 sources, one per row (each row's own in cited_ref): ref 17 = [17]; PMID 29684594; doi:10.1016/j.peptides.2018.04.013; 17. Kalina R. Gladkikh I. Dmitrenok P. Chernikov O. Koshelev S. Kvetkina A. Kozlov S. Kozlovskaya E. Monastyrnaya M. New APETx-like peptides from sea anemone Heteractis crispa modulate ASIC1a channels ||| ref 22 = [22]; PMID 15044953; doi:10.1038/sj.emboj.7600177; 22. Diochot S. Baron A. Rash L.D. Deval E. Escoubas P. Scarzello S. Salinas M. Lazdunski M. A new sea anemone peptide, APETx2, inhibits ASIC3, a major acid-sensitive channel in sensory neurons EMBO J.; conditions: cited from earlier work
[1] = 1 µM vs control (ND96 Ca2+ free)

## GTPCKCHGYIGVYWFMLAGCPNGYGYNLSCPYFLGICCVKK (disulfide 4-37, 6-30, 20-38 (inferred)) [Hcr 1b-2]
rKv1.3
  effect on potassium current, Kv1.3: inhibition
hKv3.1
  effect on potassium current, Kv3.1: not active
rKv4.2
  effect on potassium current, Kv4.2: inhibition
KQT1; 1 µM
  gating-modifier effect (voltage-current relationship), KQT1: stronger shift
KQT1; 1 µM vs control (ND96)
  Shift in Vhalf activation, KQT1: 7.9 mV
KQT1; 1 µM, 700 ms pulse to +20 mV from −90 mV, mean ± SEM, n ≥ 3
  activity (inhibition of current), KQT1: 33.4 ± 3.3%
KQT1; 1 µM, TEVC, ND96 pH 7.4, 18–22 °C, n ≥ 3
  effect on potassium current, KQT1: inhibition
KQT1; 1 µM, control (ND96) 14.6 ± 0.4, mean ± SEM
  Vhalf activation, KQT1: 22.4 ± 0.5 mV
Shaker
  effect on potassium current, Shaker: activation
hNav1.7; 1 µM
  effect on activation or inactivation, Nav1.7: no significant effect
hNav1.7; 1 µM vs control (ND96)
  Shift in Vhalf activation, Nav1.7: −2.8 mV
  Shift in Vhalf inactivation, Nav1.7: −0.5 mV
hNav1.7; 1 µM, 100 ms depolarization to 0 mV, mean ± SEM, n ≥ 3
  reduction of peak amplitude (INa) / inhibition, Nav1.7: 38.7 ± 1.8%
hNav1.7; 1 µM, control (ND96) −26.9 ± 0.1, mean ± SEM, n ≥ 3
  Vhalf activation, Nav1.7: −29.7 ± 0.1 mV
hNav1.7; 1 µM, control (ND96) −38.1 ± 0.3, mean ± SEM, n ≥ 3
  Vhalf inactivation, Nav1.7: −38.6 ± 0.4 mV
rCav3.3; [1]
  Shift in Vhalf activation, Cav3.3: −2.2 mV
  Shift in Vhalf inactivation, Cav3.3: −2.1 mV
rCav3.3; 1 µM, Cav3.3 vs Cav3.1
  higher activity on Cav3.3 than on Cav3.1: 9 fold
rCav3.3; 1 µM, Cav3.3 vs Cav3.2
  higher activity on Cav3.3 than on Cav3.2: 1.6 fold
rCav3.3; 1 µM, calcium-free ND96 + 10 mM BaCl2, 700 ms depolarization to −20 mV from −90 mV, mean ± SEM, n ≥ 3
  inhibition, Cav3.3: 58.9 ± 9.4%
rCav3.3; 1 µM, control (ND96 Ca2+ free) −41.7 ± 0.4, mean ± SEM, n ≥ 3
  Vhalf activation, Cav3.3: −43.9 ± 0.5 mV
rCav3.3; 1 µM, control (ND96 Ca2+ free) −47.6 ± 0.2, mean ± SEM, n ≥ 3
  Vhalf inactivation, Cav3.3: −49.7 ± 0.3 mV
ASIC1a
  IC50: 4.8 ± 0.3 µM
ASIC3
  IC50: 15.9 ± 1.1 µM
ASIC
  ASIC inhibition: ASIC inhibitors
